Experimental data as given in patent US20220289728A1, “MODULATORS OF TREX1” (Constellation Pharmaceuticals, Inc., priority 2019, published 2022).

What follows are compounds tested against T1, human TREX2 (residues M44-A279) (Homo sapiens, UniProt Q9BQ50) (assay: TREX2 Biochemical Assay (fluorescence, dsDNA substrate degradation)). Conditions: 2.5 nM TREX2, 60 nM dsDNA substrate, 25 minutes at room temperature.
T1 construct: human TREX2 (residues M44-A279, expressed in E. coli); His-TEV (His tag with TEV site) (N); made in house; host or cells: E. coli
T1 sequence (Q9BQ50 44-279 isoform Q9BQ50-1): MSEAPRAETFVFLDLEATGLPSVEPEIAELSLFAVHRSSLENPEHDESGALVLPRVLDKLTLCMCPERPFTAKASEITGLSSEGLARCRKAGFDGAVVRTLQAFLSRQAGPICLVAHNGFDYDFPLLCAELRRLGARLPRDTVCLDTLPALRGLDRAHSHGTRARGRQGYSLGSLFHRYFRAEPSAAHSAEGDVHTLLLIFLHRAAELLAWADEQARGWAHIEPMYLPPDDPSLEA
Summary of the method: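 Final conditions: 2.5 nM His-Tev-tagged TREX2 (E. coli-expressed), 60 nM fluorophore/quencher-labelled dsDNA, 50 mM Tris pH 7.4, 150 mM NaCl, 100 mM MgCl2, 1% DMSO; 10-point compound dose-response. Incubated 25 min at room temperature, then EDTA-quenched; fluorescence read at ex 570/em 615 nm. IC50 from four-parameter fit against pre-quenched and no-inhibitor controls.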

| SMILES | IC50 |
| --- | --- |
| CN(Cc1cccc(-c2cnn(C)c2)c1)c1nc(C(=O)Nc2cnoc2)c(O)c(=O)n1C [Example 19] | 1000 to 10000 nM |
| CN(c1nc(C(=O)Nc2cnoc2)c(O)c(=O)n1C)C(c1ccccc1)c1ccccc1 [Example 30] | < 1000 nM |
| CN(Cc1ccccc1C(F)(F)F)c1nc(C(=O)Nc2cnoc2)c(O)c(=O)n1C [Example 11] | 1000 to 10000 nM |
| Cc1c(-c2ccncc2CN(C)c2nc(C(=O)Nc3cnoc3)c(O)c(=O)n2C)cnn1C [Example 35] | 1000 to 10000 nM |
| CN(c1nc(C(=O)Nc2cnoc2)c(O)c(=O)n1C)C(c1ccccc1)c1cccc(C#N)c1 (single isomer, unassigned) [Example 51] | < 1000 nM |

Each compound was assayed against T2, full length human TREX1 (Homo sapiens, UniProt Q9NSU2) (assay: TREX1 Biochemical Assay (fluorescence, dsDNA substrate degradation)). Conditions: 150 pM TREX1, 60 nM dsDNA substrate, 25 minutes at room temperature.
T2 construct: N-terminally His-Tev tagged full length human TREX1; His-TEV (His tag with TEV site) (N); made in house; host or cells: E. coli
T2 sequence (Q9NSU2 1-314): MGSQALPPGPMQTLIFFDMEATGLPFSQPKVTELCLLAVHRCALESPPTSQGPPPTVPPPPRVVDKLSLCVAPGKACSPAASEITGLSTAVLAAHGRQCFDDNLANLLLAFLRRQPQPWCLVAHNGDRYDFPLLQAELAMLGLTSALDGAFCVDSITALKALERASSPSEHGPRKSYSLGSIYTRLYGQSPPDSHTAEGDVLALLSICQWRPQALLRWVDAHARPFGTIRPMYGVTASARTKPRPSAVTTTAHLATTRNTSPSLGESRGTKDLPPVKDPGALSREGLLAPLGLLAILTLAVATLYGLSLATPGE
Summary of the method: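 N-terminally His-Tev-tagged TREX1 was expressed in E. coli; 150 pM enzyme was run with 60 nM TEX615/quencher-labelled dsDNA at pH 7.4 in 1.0% DMSO for 25 min at room temperature, then quenched with EDTA. Fluorescence at 615 nm (570 nm excitation) was normalised to pre-quenched and no-inhibitor controls, and IC50 came from four-parameter fits.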

| SMILES | IC50 |
| --- | --- |
| CN(Cc1cccc(-c2cnn(C)c2)c1)c1nc(C(=O)Nc2cnoc2)c(O)c(=O)n1C [Example 19] | < 100 nM |
| CN(c1nc(C(=O)Nc2cnoc2)c(O)c(=O)n1C)C(c1ccccc1)c1ccccc1 [Example 30] | < 100 nM |
| CN(Cc1ccccc1C(F)(F)F)c1nc(C(=O)Nc2cnoc2)c(O)c(=O)n1C [Example 11] | < 100 nM |
| Cc1c(-c2ccncc2CN(C)c2nc(C(=O)Nc3cnoc3)c(O)c(=O)n2C)cnn1C [Example 35] | < 100 nM |
| CN(c1nc(C(=O)Nc2cnoc2)c(O)c(=O)n1C)C(c1ccccc1)c1cccc(C#N)c1 (single isomer, unassigned) [Example 51] | < 100 nM |

Each compound was assayed on HCT116 dual cells (assay: HCT116 Cell Assay (Lucia luciferase reporter of Type I interferon induction)). Conditions: 4 h pre-treatment, pBR322/BstNI DNA transfection, Lucia luciferase at 48 h; relative to 10 uM compound 39.
Format: cell-based, human
Summary of the method: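 Cells were pretreated with compound for 4 h (≤0.1% DMSO), then transfected with pBR322/BstNI DNA (1.25 ug/mL; 100 ng/well) using Lipofectamine LTX. Secreted Lucia luciferase in the medium was read after 48 h at 37 °C. EC50 came from four-parameter fits normalised to no-inhibitor and 10 uM reference-inhibitor controls.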

| SMILES | EC50 |
| --- | --- |
| CN(c1nc(C(=O)Nc2cnoc2)c(O)c(=O)n1C)C(c1ccccc1)c1cccc(C#N)c1 (single isomer, unassigned) [Example 51] | 1000 to 10000 nM |

Same assay, conditions: Homo sapiens, HCT-116, 4 h pre-treatment, pBR322/BstNI DNA transfection, Lucia luciferase at 48 h; relative to 10 uM compound 39

| SMILES | EC50 |
| --- | --- |
| CN(Cc1cccc(-c2cnn(C)c2)c1)c1nc(C(=O)Nc2cnoc2)c(O)c(=O)n1C [Example 19] | 10000 to 100000 nM |
| CN(c1nc(C(=O)Nc2cnoc2)c(O)c(=O)n1C)C(c1ccccc1)c1ccccc1 [Example 30] | < 1000 nM |
| CN(Cc1ccccc1C(F)(F)F)c1nc(C(=O)Nc2cnoc2)c(O)c(=O)n1C [Example 11] | 1000 to 10000 nM |
| Cc1c(-c2ccncc2CN(C)c2nc(C(=O)Nc3cnoc3)c(O)c(=O)n2C)cnn1C [Example 35] | 10000 to 100000 nM |
